Results published in patent publication EP4707280A1, “1,4-CINEOLE DERIVATIVE AND INTERMEDIATE THEREOF, HERBICIDE CONTAINING SAID DERIVATIVE AS ACTIVE INGREDIENT, METHOD FOR USING HERBICIDE, AND METHOD FOR PREPARING AGROCHEMICAL COMPOSITION” (HOKKO CHEMICAL INDUSTRY CO., LTD., priority 2023, dated 2024).

Experiments:
Assay type in all cases: in vivo
Scirpus juncoides = experiment: Test Example 1: herbicidal effect test by soil application in paddy rice; conditions: 120 g active ingredient per 10 ares, applied immediately after sowing, flooded pots, 14 days after application; for pest or weed control at 1200 g/ha: Schoenoplectiella juncoides, soil, 336 h, read-out: weed inhibition rate
Outline: (§1)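 Soil-applied test under flooded paddy conditions (~3 cm water) in a glass greenhouse. Seeds were sown shallow (0–1 cm, 30 per species), then compound was dripped in as diluted emulsifiable concentrate at 120 g a.i./10 a.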

[1] = tested on: Echinochloa crus-galli var. formosensis; experiment: as above; conditions: 120 g active ingredient per 10 ares, applied immediately after sowing, flooded pots, 14 days after application; for pest or weed control at 1200 g/ha: Echinochloa crus-galli, soil, 336 h, read-out: weed inhibition rate
Outline: as §1

Echinochloa crus-galli [2] = experiment: Test Example 8: herbicidal effect test by stem and leaf treatment in upland field (low dose); conditions: Echinochloa crus-galli; 7.5 g per 10 ares; sprayed seven days after sowing, upland soil; 14 days after application; read-out: weed inhibition rate
Digitaria ciliaris [3] = experiment: as above; conditions: Digitaria ciliaris; 7.5 g per 10 ares; sprayed seven days after sowing, upland soil; 14 days after application; read-out: weed inhibition rate
Echinochloa crus-galli [4] = experiment: Test Example 3: herbicidal effect test by soil application in upland field; conditions: Echinochloa crus-galli, 120 g per 10 ares, sprayed one day after sowing, 14 days after application, read-out: weed inhibition rate
Outline: (§2)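 Pre-emergence test: seeds mixed into top 1 cm of alluvial loam upland soil in pots; emulsifiable concentrate diluted in water sprayed on soil one day after sowing at 100 L/10 a, 120 g a.i./10 a. Weed inhibition rate (%) scored at 14 days, in duplicate.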

Digitaria ciliaris [5] = experiment: as above; conditions: Digitaria ciliaris, 120 g per 10 ares, sprayed one day after sowing, 14 days after application, read-out: weed inhibition rate
Outline: as §2

Monochoria vaginalis [6] = experiment: Test Example 1: herbicidal effect test by soil application in paddy rice; conditions: 120 g active ingredient per 10 ares, applied immediately after sowing, flooded pots, 14 days after application; for pest or weed control at 1200 g/ha: Pontederia vaginalis, soil, 336 h, read-out: weed inhibition rate
Outline: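 Pre-emergence test in puddled, flooded paddy soil (about 3 cm water), 30 seeds per weed sown at 0–1 cm depth in a glass greenhouse. Emulsifiable concentrate diluted in water and dropped onto the pots straight after sowing at 120 g a.i. per 10 ares. Weed inhibition (%) scored at 14 days, in duplicate.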

Monochoria vaginalis [7] = experiment: Test Example 6: herbicidal effect test by application during growth period of paddy rice (low dose); conditions: Pontederia vaginalis; 7.5 g per 10 ares; applied seven days after sowing, flooded pots; 14 days after application; read-out: weed inhibition rate
Outline: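 Paddy-soil pots, flooded ~3 cm after sowing weed seeds at 0-1 cm depth, greenhouse-grown. Seven days after sowing, diluted emulsifiable concentrate applied by dropper at 7.5 g active ingredient per 10 ares. Weed inhibition rate (%) scored 14 days after application, in duplicate.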

Cc1ccccc1CO[C@@H]1C[C@]2(C(C)C)O[C@@]1(C)C[C@@H]2Br [1-16, (1S,2R,4R,5S)-5-bromo-1-methyl-2-[(2-methylphenyl)methoxy]-4-isopropyl-7-oxabicyclo[2.2.1]heptane]
≥ 80%: pest or weed control at 1200 g/ha (Scirpus juncoides) | pest or weed control at 1200 g/ha [1] | inhibition at 75 g/ha (Echinochloa crus-galli [2]) | inhibition at 75 g/ha (Digitaria ciliaris [3]) | inhibition at 1200 g/ha (Echinochloa crus-galli [4]) | inhibition at 1200 g/ha (Digitaria ciliaris [5]) | pest or weed control at 1200 g/ha (Monochoria vaginalis [6])

CC(C)[C@]12C[C@@H](OCc3ccccc3Cl)[C@](C)(C[C@@H]1Br)O2 [1-20, (1S,2R,4R,5S)-5-bromo-2-[(2-chlorophenyl)methoxy]-1-methyl-4-isopropyl-7-oxabicyclo[2.2.1]heptane]
≥ 80%: pest or weed control at 1200 g/ha (Scirpus juncoides) | pest or weed control at 1200 g/ha [1] | inhibition at 75 g/ha (Echinochloa crus-galli [2]) | inhibition at 75 g/ha (Digitaria ciliaris [3]) | inhibition at 1200 g/ha (Echinochloa crus-galli [4]) | inhibition at 1200 g/ha (Digitaria ciliaris [5]) | inhibition at 75 g/ha (Monochoria vaginalis [7]) | pest or weed control at 1200 g/ha (Monochoria vaginalis [6])

CC(C)[C@]12C[C@@H](OCc3ccccc3F)[C@](C)(CC1C)O2 (stereo partly drawn) [1-92, (1S,2R,4R)-2-((2-fluorobenzyl)oxy)-4-isopropyl-1,5-dimethyl-7-oxabicyclo[2.2.1]heptane]
≥ 80%: pest or weed control at 1200 g/ha (Scirpus juncoides) | pest or weed control at 1200 g/ha [1] | inhibition at 75 g/ha (Echinochloa crus-galli [2]) | inhibition at 75 g/ha (Digitaria ciliaris [3]) | inhibition at 1200 g/ha (Echinochloa crus-galli [4]) | inhibition at 1200 g/ha (Digitaria ciliaris [5]) | inhibition at 75 g/ha (Monochoria vaginalis [7]) | pest or weed control at 1200 g/ha (Monochoria vaginalis [6])

CC(C)[C@]12C[C@@H](OCc3ccccc3F)[C@](C)(C[C@H]1C)O2 [1-94, (1S,2R,4R,5R)-2-[(2-fluorophenyl)methoxy]-1,5-dimethyl-4-isopropyl-7-oxabicyclo[2.2.1]heptane]
≥ 80%: pest or weed control at 1200 g/ha (Scirpus juncoides) | pest or weed control at 1200 g/ha [1] | inhibition at 75 g/ha (Echinochloa crus-galli [2]) | inhibition at 75 g/ha (Digitaria ciliaris [3]) | inhibition at 1200 g/ha (Echinochloa crus-galli [4]) | inhibition at 1200 g/ha (Digitaria ciliaris [5]) | inhibition at 75 g/ha (Monochoria vaginalis [7]) | pest or weed control at 1200 g/ha (Monochoria vaginalis [6])

CC(C)C1C[C@]2(C)O[C@@]1(C(C)C)C[C@H]2OCc1ccccc1F (stereo partly drawn) [1-133, (1S,2R,4R)-2-[(2-fluorobenzyl)oxy]-4,5-isopropyl-1-methyl-7-oxabicyclo[2.2.1]heptane]
≥ 80%: weed inhibition rate (Scirpus juncoides) | weed inhibition rate [1] | inhibition at 75 g/ha (Echinochloa crus-galli [2]) | inhibition at 1200 g/ha (Echinochloa crus-galli [4]) | inhibition at 1200 g/ha (Digitaria ciliaris [5]) | inhibition at 75 g/ha (Monochoria vaginalis [7]) | weed inhibition rate (Monochoria vaginalis [6])

CC(C)[C@]12C[C@@H](OCc3ccccc3F)[C@](C)(C[C@@H]1OS(=O)(=O)C(F)(F)F)O2 [1-525, (1R,2S,4S,5R)-5-((2-fluorobenzyl)oxy)-1-isopropyl-4-methyl-7-oxabicyclo[2.2.1]heptan-2-yl trifluoromethanesulfonate]
≥ 80%: pest or weed control at 1200 g/ha (Scirpus juncoides) | pest or weed control at 1200 g/ha [1] | inhibition at 75 g/ha (Echinochloa crus-galli [2]) | inhibition at 75 g/ha (Digitaria ciliaris [3]) | inhibition at 1200 g/ha (Echinochloa crus-galli [4]) | inhibition at 1200 g/ha (Digitaria ciliaris [5]) | pest or weed control at 1200 g/ha (Monochoria vaginalis [6])

Cc1cccc(CO[C@@H]2C[C@]3(C(C)C)O[C@@]2(C)C[C@@H]3Br)c1 [1-680, (1S,2R,4R,5S)-5-bromo-1-methyl-2-[(3-methylphenyl)methoxy]-4-isopropyl-7-oxabicyclo[2.2.1]heptane]
≥ 80%: pest or weed control at 1200 g/ha (Scirpus juncoides) | pest or weed control at 1200 g/ha [1] | inhibition at 75 g/ha (Echinochloa crus-galli [2]) | inhibition at 1200 g/ha (Echinochloa crus-galli [4]) | inhibition at 1200 g/ha (Digitaria ciliaris [5]) | pest or weed control at 1200 g/ha (Monochoria vaginalis [6])

CC(C)[C@]12C[C@@H](OCc3cccc(Cl)c3)[C@](C)(C[C@@H]1Br)O2 [1-692, (1S,2R,4R,5S)-5-bromo-2-[(3-chlorophenyl)methoxy]-1-methyl-4-isopropyl-7-oxabicyclo[2.2.1]heptane]
≥ 80%: pest or weed control at 1200 g/ha (Scirpus juncoides) | pest or weed control at 1200 g/ha [1] | inhibition at 1200 g/ha (Echinochloa crus-galli [4]) | inhibition at 1200 g/ha (Digitaria ciliaris [5]) | pest or weed control at 1200 g/ha (Monochoria vaginalis [6])

CC(C)[C@]12C[C@@H](OCc3ccc(Cl)cc3)[C@](C)(C[C@@H]1Br)O2 [1-693, (1S,2R,4R,5S)-5-bromo-2-[(4-chlorophenyl)methoxy]-1-methyl-4-isopropyl-7-oxabicyclo[2.2.1]heptane]
≥ 80%: pest or weed control at 1200 g/ha (Scirpus juncoides) | pest or weed control at 1200 g/ha [1] | inhibition at 75 g/ha (Echinochloa crus-galli [2]) | inhibition at 1200 g/ha (Echinochloa crus-galli [4]) | inhibition at 1200 g/ha (Digitaria ciliaris [5]) | pest or weed control at 1200 g/ha (Monochoria vaginalis [6])

CC(C)[C@]12C[C@@H](OCc3c(Cl)cccc3Cl)[C@](C)(C[C@@H]1Br)O2 [1-712, (1S,2R,4R,5S)-5-bromo-2-[(2,6-dichlorophenyl)methoxy]-1-methyl-4-isopropyl-7-oxabicyclo[2.2.1]heptane]
≥ 80%: pest or weed control at 1200 g/ha (Scirpus juncoides) | pest or weed control at 1200 g/ha [1] | inhibition at 75 g/ha (Echinochloa crus-galli [2]) | inhibition at 1200 g/ha (Echinochloa crus-galli [4]) | inhibition at 1200 g/ha (Digitaria ciliaris [5]) | inhibition at 75 g/ha (Monochoria vaginalis [7]) | pest or weed control at 1200 g/ha (Monochoria vaginalis [6])

CC(C)[C@]12C[C@@H](OCc3ccc(Cl)cc3Cl)[C@](C)(C[C@@H]1Br)O2 [1-717, (1S,2R,4R,5S)-5-bromo-2-[(2,4-dichlorophenyl)methoxy]-1-methyl-4-isopropyl-7-oxabicyclo[2.2.1]heptane]
≥ 80%: pest or weed control at 1200 g/ha (Scirpus juncoides) | pest or weed control at 1200 g/ha [1] | inhibition at 75 g/ha (Echinochloa crus-galli [2]) | inhibition at 75 g/ha (Digitaria ciliaris [3]) | inhibition at 1200 g/ha (Echinochloa crus-galli [4]) | inhibition at 1200 g/ha (Digitaria ciliaris [5]) | pest or weed control at 1200 g/ha (Monochoria vaginalis [6])

Cc1ccccc1CO[C@@H]1C[C@]2(C(C)C)O[C@@]1(C)C[C@@H]2I [1-741, (1S,2R,4R,5S)-5-iodo-1-methyl-2-[(2-methylphenyl)methoxy]-4-isopropyl-7-oxabicyclo[2.2.1]heptane]
≥ 80%: pest or weed control at 1200 g/ha (Scirpus juncoides) | pest or weed control at 1200 g/ha [1] | inhibition at 75 g/ha (Echinochloa crus-galli [2]) | inhibition at 75 g/ha (Digitaria ciliaris [3]) | inhibition at 1200 g/ha (Echinochloa crus-galli [4]) | inhibition at 1200 g/ha (Digitaria ciliaris [5]) | pest or weed control at 1200 g/ha (Monochoria vaginalis [6])

CC(C)CC1C[C@]2(C)O[C@@]1(C(C)C)C[C@H]2OCc1ccccc1F (stereo partly drawn) [1-915, (1S,2R,4R)-2-((2-fluorobenzyl)oxy)-5-isobutyl-4-isopropyl-1-methyl-7-oxabicyclo[2.2.1]heptane]
≥ 80%: pest or weed control at 1200 g/ha (Scirpus juncoides) | pest or weed control at 1200 g/ha [1] | inhibition at 75 g/ha (Echinochloa crus-galli [2]) | inhibition at 75 g/ha (Digitaria ciliaris [3]) | inhibition at 1200 g/ha (Echinochloa crus-galli [4]) | inhibition at 1200 g/ha (Digitaria ciliaris [5]) | pest or weed control at 1200 g/ha (Monochoria vaginalis [6])

CC(C)[C@]12C[C@@H](OCc3ccccc3F)[C@](C)(C[C@@H]1OCC1CC1)O2 [1-1603, (1S,2R,4R,5S)-5-(cyclopropylmethoxy)-2-[(2-fluorophenyl)methoxy]-1-methyl-4-isopropyl-7-oxabicyclo[2.2.1]heptane]
≥ 80%: pest or weed control at 1200 g/ha (Scirpus juncoides) | pest or weed control at 1200 g/ha [1] | inhibition at 75 g/ha (Echinochloa crus-galli [2]) | inhibition at 75 g/ha (Digitaria ciliaris [3]) | inhibition at 1200 g/ha (Echinochloa crus-galli [4]) | inhibition at 1200 g/ha (Digitaria ciliaris [5]) | pest or weed control at 1200 g/ha (Monochoria vaginalis [6])

CC(C)[C@]12C[C@@H](OCc3cccc(F)c3F)[C@](C)(CC1=O)O2 [2-14, (1R,4S,5R)-5-((2,3-difluorobenzyl)oxy)-1-isopropyl-4-methyl-7-oxabicyclo[2.2.1]heptan-2-one]
≥ 80%: pest or weed control at 1200 g/ha (Scirpus juncoides) | pest or weed control at 1200 g/ha [1] | inhibition at 75 g/ha (Echinochloa crus-galli [2]) | inhibition at 75 g/ha (Digitaria ciliaris [3]) | inhibition at 1200 g/ha (Echinochloa crus-galli [4]) | inhibition at 1200 g/ha (Digitaria ciliaris [5]) | pest or weed control at 1200 g/ha (Monochoria vaginalis [6])

CC(C)[C@]12C[C@@H](OCc3cc(F)ccc3F)[C@](C)(CC1=O)O2 [2-18, (1R,4S,5R)-5-((2,5-difluorobenzyl)oxy)-1-isopropyl-4-methyl-7-oxabicyclo[2.2.1]heptan-2-one]
≥ 80%: pest or weed control at 1200 g/ha (Scirpus juncoides) | pest or weed control at 1200 g/ha [1] | inhibition at 75 g/ha (Echinochloa crus-galli [2]) | inhibition at 75 g/ha (Digitaria ciliaris [3]) | inhibition at 1200 g/ha (Echinochloa crus-galli [4]) | inhibition at 1200 g/ha (Digitaria ciliaris [5])

CC(C)[C@]12C[C@@H](OCc3c(Cl)cccc3Cl)[C@](C)(CC1=O)O2 [2-26, (1R,4S,5R)-5-((2,6-dichlorobenzyl)oxy)-1-isopropyl-4-methyl-7-oxabicyclo[2.2.1]heptan-2-one]
≥ 80%: pest or weed control at 1200 g/ha (Scirpus juncoides) | pest or weed control at 1200 g/ha [1] | inhibition at 75 g/ha (Digitaria ciliaris [3]) | inhibition at 1200 g/ha (Echinochloa crus-galli [4]) | inhibition at 1200 g/ha (Digitaria ciliaris [5]) | pest or weed control at 1200 g/ha (Monochoria vaginalis [6])

Cc1cccc(C)c1CO[C@@H]1C[C@@]2(C(C)C)C=C[C@]1(C)O2 [3-3, (1R,4S,5R)-5-[(2,6-dimethylphenyl)methoxy]-4-methyl-1-isopropyl-7-oxabicyclo[2.2.1]hept-2-ene]
≥ 80%: pest or weed control at 1200 g/ha (Scirpus juncoides) | pest or weed control at 1200 g/ha [1] | inhibition at 1200 g/ha (Echinochloa crus-galli [4]) | inhibition at 1200 g/ha (Digitaria ciliaris [5]) | pest or weed control at 1200 g/ha (Monochoria vaginalis [6])
